Bounds are passed on as bounds.

In the case of `CCc1nc(NC(=O)NS(=O)(=O)c2ccccc2OC(F)F)nc(OC)n1`, the melting point (as a rule, the temperature, or range, at which the solid turns liquid) lay within 114 to 116 °C.

In the case of `[N-]=[N+]=Cc1ccc([N+](=O)[O-])cc1`, the melting point lay within 80 to 82 °C.

`CC(C)(C)Oc1nc2cc(F)c([N+](=O)[O-])cc2[nH]c1=NC#N` registered a melting point of 161 to 164 °C.

Molecule `CCCn1c(=O)c2[nH]c(-c3ccsc3)nc2n(CCC)c1=O` displayed a melting point of more than 250 °C.

As to `CCCC(c1cccc(NC(=O)OCc2ccccc2)c1)c1c(O)c2c(oc1=O)CCCCCC2` (stereo unspecified), the melting point is 64 to 67 °C.

`O=c1c2ccc(Cl)cc2[nH]c2c(O)nn(C3CCCc4ccccc43)c(=O)c12` (racemic) yielded a melting point of more than 300 °C.

As for `CC(C)(C)OC(=O)NNc1ccc([N+](=O)[O-])cn1`, the melting point was 132 to 134 °C.

`O=C1NCCSC1Cc1ccc(OCc2ccccc2)cc1` (stereo unspecified) had a melting point of 126 to 128 °C.

Regarding `Nc1ccc(-c2ccc(Cl)cc2)cn1`, the melting point lay in the range of 122 to 124 °C.

The molecule `CSc1nn2c(O)cc(O)nc2c1S(=O)(=O)c1ccccc1` yielded a melting point of more than 230 °C.

The molecule `CSc1nnc(SCC2=C(C(=O)O)N3C(=O)C(NC(=O)Cc4csc(=O)s4)C3SC2)s1` (stereo unspecified) gave a melting point of 160 °C.

With `Cc1nnc(-c2cc(O)c(O)c([N+](=O)[O-])c2)o1`, the melting point is 245 to 246 °C.

On to `O=C1CCCCCCCCCCC(O)CCCO1` (stereo unspecified), for which the melting point fell in the range of 59 to 61 °C.

On to `CCCCC1=CC(=C(Br)Br)OC1=O`, for which the melting point was in the range of 48 to 49 °C.

Take `Cc1nc(N2CCN(CCC3CC3)C2=O)sc1C(=O)NCc1cccnc1`: the melting point lay within 146 to 147 °C.

`COC(=O)C=NOCc1c(F)cccc1COc1ccccc1C` displayed a melting point of 108 °C.

On to `CCn1cc(CN(C(=O)C2CCCc3c(O)cccc32)c2ccc(C(C)C)cc2)cn1` (stereo unspecified), for which the melting point was in the range of 212 to 215 °C.

In the case of `CN(C)C(=O)C1(CCC#N)c2ccccc2-c2ccccc21`, the melting point lay within 109 to 110 °C.

On to `CN(C)C1CCN(c2nc(N3CCOCC3)c3ncnc(OCc4ccccc4)c3n2)CC1`, for which the melting point lay within 186 to 188 °C.

In turn, `CC(C)c1ccc(N(C=O)C(=O)N(C)C)cc1` came in with a melting point of 30 to 32 °C.

For `C(#Cc1cccc(-c2cnccn2)c1)c1ccncc1`, the melting point was in the range of 94 to 95 °C.

Turning to `COc1cc(CNC(=O)c2ccc(Cl)cc2OCC(=O)O)cc(OC)c1`, the melting point was determined as 163 °C.

`Cc1cc(-c2c[nH]cn2)ccc1N=CNC#N` came in with a melting point of 200 to 202 °C.

As for `CC(C)c1cccc(COCCO)c1NC(=O)CC1c2ccccc2Oc2ccccc21`, the melting point is 153 to 154 °C.

`N#Cc1ccc(-c2ccc(F)cc2)nc1` returned a melting point of 149 °C.

The molecule `CC(=O)N(C(C)=O)C1=C(N2CCN(c3ccc(F)cc3)CC2)C(=O)c2ccccc2C1=O` registered a melting point of 149 to 150 °C.

Take `Nc1ncnc2c1c(-c1ccc(Oc3ccccc3C=O)cc1)cn2C1CCOC1` (stereo unspecified): the melting point lay within 185 to 187 °C.

Turning to `CCCc1nc(C)c(C(=O)O)n1Cc1ccc2oc(-c3ccccc3NS(=O)(=O)C(F)(F)F)c(Br)c2c1`, the melting point lay in the range of 168 to 170 °C.

For the molecule `CC(C)(C)c1ccc2oc(C(=O)COc3ccc(C(=O)O)cc3)cc2c1`, the melting point fell in the range of 210 to 211 °C.

As for `Cc1cccc(C(=O)Cc2ccccc2)c1C`, the melting point was in the range of 52 to 53 °C.

In turn, `O=C(OCc1ccccc1)N1CCN2C(=O)OCC2C1` (racemic) yielded a melting point of 85.5 to 86.5 °C.

Molecule `CCN1C(=O)C(OC(=O)C(C)(C)C)=C(c2c(C)cc(C)cc2C)C1=O` gave a melting point of 91 °C.

In the case of `CN(CSC(C)(C)CC(C)(C)C)C(=O)Nc1cccc(C(F)(F)F)c1`, the melting point lay in the range of 52 to 54 °C.

`CCN(CC)CCCC1CCN(CCNC(=O)N2c3ccccc3C(=O)Nc3cccnc32)CC1` displayed a melting point of 165 to 166 °C.

Molecule `COc1ccc(OCC2CO2)c(C(=O)Nc2cccc3[nH]ccc23)c1` (stereo unspecified) displayed a melting point of 122 °C.

Turning to `COc1ccc(CN2C(=O)C3(COc4cc5c(cc43)CCO5)c3ccccc32)cc1` (stereo unspecified), the melting point lay in the range of 120 to 121 °C.

On to `CC(=O)OCCCC(=O)CC(=O)c1ccccc1`, for which the melting point lay in the range of 48 to 49 °C.

For the molecule `O=C1CCCc2c1c1cccc(F)c1n2Cc1ccccc1`, the melting point lay in the range of 183 to 184 °C.

The molecule `COc1ccc([N+](=O)[O-])c2c1CC(NC(C)=O)CC2` (stereo unspecified) came in with a melting point of 205 to 206 °C.

In turn, `NC(=O)CCCSc1cccc(Br)n1` gave a melting point of 87 to 88 °C.

In turn, `COC1=CC(OC)OC(C)C1=O` (stereo unspecified) showed a melting point of 73 to 74.5 °C.

As to `CCNn1c(C)nc(N2CCc3ccccc3CC2)c(C#N)c1=O`, the melting point lay within 172 to 174 °C.

As for `Cc1cncc2c1C(=N)N(Cc1ccccc1)S2(=O)=O`, the melting point fell in the range of 37 to 39 °C.

`CC(=O)Nc1ncc(-c2ccncc2)cn1` gave a melting point of 261 to 264 °C.

Take `Nc1ncnc2c1ncn2OCC/C=C/P(=O)(O)O`: the melting point worked out at 238 °C.

Regarding `O=C(O)COc1ccc(N2CC(=O)NS2(=O)=O)c(O)c1`, the melting point lay within 185 to 188 °C.

On to `CCOC(=O)N1CCc2nc3ccccc3c(O)c2CC1`, for which the melting point turned out to be 252 °C.

With `COC(=O)CCCc1cc2nc(Cl)ccc2n1S(=O)(=O)c1ccc2c(c1)CCO2`, the melting point turned out to be 201 °C.

Consider `CCOC(=O)c1cn(-c2nonc2C)c2nc(Cl)c(F)cc2c1=O`, for which the melting point was in the range of 211 to 216 °C.

For the molecule `C=CCN(CC=C)c1ccc(NCCO)cc1[N+](=O)[O-]`, the melting point lay in the range of 166 to 170 °C.

With `O=C1CCCC2=C1C(c1cccnc1)C1=C(CCS1)N2` (stereo unspecified), the melting point is more than 250 °C.

The molecule `CC(=O)C(C#N)c1cccc(Br)c1` (stereo unspecified) registered a melting point of 96 to 100 °C.

For the molecule `O=C(Nc1nc(=O)n(S(=O)(=O)c2ccccc2)cc1F)c1ccccc1`, the melting point lay in the range of 150 to 151 °C.

Take `CCc1ccc(OCCCN2CCC(C(O)(c3ccc(F)cc3)c3ccc(F)cc3)CC2)c(OC)c1`: the melting point fell in the range of 118 to 120 °C.

Molecule `C[C@]1(CN2CCN(c3ccc(Cl)cc3)CC2)Cn2cc([N+](=O)[O-])nc2O1` had a melting point of 218 to 220 °C.

`COc1ccc2c(c1)c(Cc1cc(=O)n(-c3cc(Cl)cc(Cl)c3)[nH]1)c(C)n2C(=O)c1ccc(Cl)cc1` registered a melting point of 104 to 105 °C.

Take `CNc1nc2c(s1)C(=O)CCC2`: the melting point was in the range of 180 to 182 °C.

With `CCc1nc2c(N)nc3ccccc3c2n1CCOCCNS(C)(=O)=O`, the melting point was 169 to 171 °C.

In the case of `C=C(CC(C)C)C(=O)O`, the melting point lay in the range of 101 to 105 °C.

`Nc1ncc(-c2ccccc2COc2ccccc2)s1` yielded a melting point of 154 °C.

With `CC(CCCC(C)(C)O)C1CCC2C3CCC4(O)CC(O)CCC4(C)C3CCC12C` (stereo unspecified), the melting point fell in the range of 202 to 204 °C.

Consider `CC(C)Oc1ccc(CCCOc2ncccc2CC(=O)O)c(Oc2ncc(Cl)cc2Cl)c1`, for which the melting point lay within 84 to 85 °C.

In the case of `CN(C(=S)Nc1ccccc1)C1CCN(CCc2c[nH]c3ccccc23)CC1`, the melting point is 194 °C.

Molecule `O=C1c2ccccc2C(=O)N1CC(=CF)CBr` returned a melting point of 86 to 87 °C.

Take `O=S(=O)(CCO)c1ccccc1`: the melting point was 87 to 89 °C.

As to `CCCc1c(OCCCOCCCOc2ccc3ccc(OCC(=O)O)cc3c2C(C)=O)ccc(C(C)=O)c1O`, the melting point lay in the range of 101 to 104 °C.

The values are drawn from a melting point compilation (Tetko et al.; mined from patent text by program, amines drawn as free bases though some values may be those of a salt).
